Measurements taken from ChEMBL document CHEMBL4613264, “Design, Synthesis, and Biological Evaluation of New Peripheral 5HT2A Antagonists for Nonalcoholic Fatty Liver Disease” (J Med Chem, 2020).

Key:
[1] = molecular target: 5-hydroxytryptamine receptor 2A (Homo sapiens, UniProt P28223); test: Antagonist activity at 5HT2A receptor (unknown origin) expressed in HEK293 cells assessed as inhibition of serotonin hydrochloride-induced calcium flux preincubated for 1 hr followed by serotonin hydrochloride addition by calcium 6 dye based FLIPR assay; format: functional, cell-based
[2] = Stability in human liver microsomes assessed as parent compound remaining measured after 30 mins; format: ADME, Microsome; conditions: read-out: Stability
in vitro = conditions: rat, liver microsomes
Description: Stability in rat liver microsomes assessed as parent compound remaining measured after 30 mins

5-hydroxytryptamine receptor 2A, sequence (P28223 whole entry): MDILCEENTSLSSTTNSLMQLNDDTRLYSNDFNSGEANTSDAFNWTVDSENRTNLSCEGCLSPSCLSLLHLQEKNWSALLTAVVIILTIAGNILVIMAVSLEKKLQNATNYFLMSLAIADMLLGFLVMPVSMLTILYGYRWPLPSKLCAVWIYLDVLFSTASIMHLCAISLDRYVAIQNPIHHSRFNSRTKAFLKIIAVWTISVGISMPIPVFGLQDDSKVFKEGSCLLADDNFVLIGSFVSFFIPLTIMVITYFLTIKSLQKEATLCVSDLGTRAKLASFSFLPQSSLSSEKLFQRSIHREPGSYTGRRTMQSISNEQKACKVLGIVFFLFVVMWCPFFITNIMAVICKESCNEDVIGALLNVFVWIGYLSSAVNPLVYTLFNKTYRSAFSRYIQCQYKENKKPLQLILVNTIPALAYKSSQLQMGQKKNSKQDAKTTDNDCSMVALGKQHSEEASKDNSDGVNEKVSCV

| SMILES | IC50 [1] [nM] | remaining at 0.5 h [2] [%] | remaining at 0.5 h (in vitro) [%] |
| --- | --- | --- | --- |
| CN1CCC(N(Cc2ccc(F)cc2)C(=O)NCc2ccc(OCC(O)CN3CCN(c4nsc5ccccc45)CC3)cc2)CC1 (configuration not stated) | 0.87 | – | – |
| O=C1CC2(CCCC2)CC(=O)N1CCCCN1CCN(c2ncccn2)CC1 [BUSPIRONE] | – | 4 | 15 |
| CC(C)COc1ccc(CNC(=O)N(Cc2ccc(F)cc2)C2CCN(C(=O)C[C@H](N)C(=O)O)CC2)cc1 | 34.6 | – | – |
| CC(C)COc1ccc(CNC(=O)N(Cc2ccc(F)cc2)C2CCNCC2)cc1 | 0.6 | – | – |
| CC(C)COc1ccc(CNC(=O)N(Cc2ccc(F)cc2)C2CCN(C(=S)NC(C)C)CC2)cc1 | 1130 | – | – |
| CC(C)COc1ccc(CNC(=O)N(Cc2ccc(F)cc2)C2CCN(S(C)(=O)=O)CC2)cc1 | 2020 | – | – |
